In patent US20040198811A1 (H. Lundbeck A/S, priority 2001, published 2004):

Assays:
Type in all cases: in vivo
[1] = test system: primary care patients with major depression disorder; experiment: 8-week, double-blind, randomised, placebo-controlled, flexible-dose clinical study
Description: (§1) This has i.a. been found in the Chronic Mild Stress model (Willner P., Psychopharmachology 1997, 134, 319-329).
A total of 471 patients were randomised into the study. The all-patient-treated set comprised 469 patients and the full-analysis set comprised 468 patients.
There was an approximately 3 to 1 ratio of women to men in each treatment group, and almost all patients were Caucasian. The mean age was 43 years (SD 11). At baseline, the mean MADRS total score was approximately 29 for the treatment group, which signifies moderate to severely ill patients.

[2] = pharmacological and clinical studies (effect of R-citalopram, potency versus racemate)
Description: This may be shown in functional in-vivo pharmacological models and studies of 5-HT-reuptake effect and or in behaviour models, for example depression models.

[3] = fixed dose studies (MADRS rating scale and Clinical Global Impression); conditions: escitalopram in a dose of 10 mg
animal models = experiment: Chronic Mild Stress model
Description: as §1

[4] = Week 4, last observation carried forward, 10 mg escitalopram, 20 mg citalopram

| Compound | adjusted mean change in MADRS total score versus placebo [1, 4] [points] | impact on the effect of escitalopram ([2]; in vivo) | onset of effect ([1]; 10 mg escitalopram, 20 mg citalopram, versus placebo) | therapeutic effect versus placebo on adjusted mean change in MADRS total score ([1]; Week 1 (p=0.023) to Week 4, observed cases) | CGI improvement and severity subscale versus placebo ([1]; Week 4, last observation carried forward) | CGI improvement and severity subscale versus placebo ([1]; from Week 1 onwards, 4-week period, observed cases) | effect as determined by MADRS rating scale and Clinical Global Impression (severity and improvement) [3] | speed of response (animal models) | potency relative to the racemate ([2]; pharmacological and clinical studies) |
| --- | --- | --- | --- | --- | --- | --- | --- | --- | --- |
| CN(C)CCCC1(c2ccc(F)cc2)OCc2cc(C#N)ccc21 (racemic) [citalopram, reference compound] | 1.5 | – | – | – | – | – | – | – | – |
| CN(C)CCC[C@]1(c2ccc(F)cc2)OCc2cc(C#N)ccc21 [R-citalopram, reference compound] | – | negative impact | – | – | – | – | – | – | – |
| (S)-1-[3-(dimethylamino)propyl]-1-4-fluorophenyl)-1,3-dihydro-5-isobenzofurancarbonitdile [escitalopram] | 2.7 | – | showed effects after one week | significantly superior therapeutic effect | statistically significantly superior to placebo | significantly superior to placebo | at least same effect as citalopram in a dose of 40 mg | faster response than citalopram-racemate | substantially more than two times as potent as the racemate |
